{"source": "patent US20220064238A1", "about": "“Methods And Compositions For Modifying Transcription Factor Activity by Targeting The Human Mediator Complex Using Cell Penetrating Memetic Peptides And Methods of Treating Cancer Using The Same” (The Regents of the University of Colorado, a body corporate, priority 2020, published 2022)", "key": {"cells": {"tested_on": "cells", "conditions": "prior analysis; cited from earlier work"}, "[1]": {"tested_on": "p53 target genes in HCT116 cells", "assay": "RNA-Seq / GSEA in HCT116 cells, p53 pathway genes", "type": "cell-based, human", "description": "To circumvent this issue, we used a well-tested electroporation protocol to enhance cell uptake of the bivalent peptide (see Methods). HCT116 cells were evaluated either in the presence of bivalent peptide or vehicle (water), with or without Nutlin-3a (FIG. 3A, B). Nutlin-3a is a small molecule that activates and stabilizes p53 by inhibiting MDM2, a repressor of p53. […] After 3 h Nutlin-3a treatment (or DMSO control, ±bivalent peptide), nuclear RNA was isolated and biological replicate RNA-Seq libraries were prepared (FIG. 9A; Table 1).\nA confounding issue with these experiments was that cellular uptake of the bivalent peptide could not be accurately measured and could potentially vary from experiment-to-experiment. To assess this possibility more thoroughly, we completed an additional round of RNA-Seq experiments in control vs. Nutlin-treated HCT116 cells (FIG. 9B; Table 1). These additional experiments (RNA-Seq experiment 2) were completed with a slightly modified protocol that included treatment in serum-free media as an effort to enhance peptide uptake. Importantly, the data from RNA-Seq experiment 2 (biological triplicate; FIG. 10) were consistent with the first series of biological replicates (RNA-Seq experiment 1; FIG. 3C-E) and in each case, repression of p53-dependent transcription by the bivalent peptide tracked with Nutlin induction levels (FIG. 9CE). Nutlin-induced activation of p53 target genes was inhibited in the presence of the bivalent peptide, providing further evidence that the bivalent peptide blocks p53 response in cells. However, the scope and magnitude of the effect was reduced in this second, independent set of RNA-Seq experiments (e.g. compare FIG. 3C, D & FIG. 10C, D). This broadly consistent but variable magnitude effect can also be seen from RNA-Seq reads at specific p53 target genes (RNA-Seq experiment 1, FIG. 4A, B; RNA-Seq experiment 2, FIG. 4C, D). The overall p53 response to Nutlin-3a was reduced in RNA Seq experiment 2 (GSEA p53 pathway NES=2.76 in RNA-Seq experiment 1 vs. NES=1.59 in RNASeq experiment 2), which therefore reduced the transcriptional impact of the bivalent peptide. However, we cannot rule out variable cellular uptake of the bivalent peptide as a contributing factor.\nElectroporation of bivalent peptide into HCT116 cells (RNA-Seq experiment 1): Two 6-well plates (HCT116 cells) were grown to about 80% confluency. Cells were then trypsinized, washed with PBS, and resuspended in 150 μL Neon Buffer R. The cells were then split into two groups: No peptide and 10 μM peptide. The cells were then drawn into a 10 μL Neon pipet tip, electroporated and ejected into 2 mL of McCoy's 5A media without antibiotic. For each experiment, two cell electroporation aliquots were added to media containing either 0.1% DMSO (control) or 10 μM Nutlin-3a (in DMSO, to a final concentration of 0.1%). For wells containing cells electroporated with peptide, an additional 200 nM peptide was added to the well to allow for peptide uptake during the experiment. The 6-well plate was then placed back at 37° C. for 3 hours. After 3 hours, cells were scraped from the plates, transferred to a 15 mL conical vial, pelleted at 1,000×g, and washed in 10 mL phosphate buffered saline (PBS) solution. To isolate the nuclei, cells were resuspended in 10 mL lysis buffer (10 mM Tris-HCl, pH 7.4, 2 mM MgCl2, 3 mM CaCl2), 0.5% NP-40, 10% glycerol) and thoroughly mixed. The nuclei were spun down at 1,000×g for 10 minutes, the lysis buffer was removed, and 1 mL of TRIzol was added. The nuclear RNA was isolated as described in the TRIzol instructions, except an additional phenol/chloroform extraction and chloroform-only extraction were performed to reduce contaminants. RNA was precipitated and washed twice with 75% ethanol to further remove contaminants. The RNA was then converted to cDNA using the High Capacity cDNA kit from Thermo Fisher Scientific. […]"}, "[2]": {"tested_on": "pol II occupancy at the p21 locus", "assay": "ChIP of RNA polymerase II occupancy at CDKN1A (p21)", "type": "cell-based", "conditions": "3 h post-Nutlin, Ser5-phosphorylated pol II ChIP", "from_the_text": "FIGS. 13A-B. Summary of ChIP experiments, showing that RNA polymerase II occupancy at the p53 target gene CDKN1A (p21) is reduced in cells treated with the bivalent peptide (peptide). A) Time course following Nutlin induction, to determine ideal time point to probe pol II occupancy at the p21 locus. […] However, pol II occupancy is reduced in cells treated with the bivalent peptide. […] Pol II phosphorylated at serine-5 of its C-terminal domain was used for ChIP analysis, because this is a proxy for initiating pol II at gene promoters (start sites). Data represent biological triplicates. Similar results were observed genome-wide, using ChIP-seq, although the timing of induction across p53 target genes will vary (data not shown)."}, "basal transcription": {"tested_on": "basal transcription", "assay": "In vitro transcription on naked DNA templates, basal (no activator)", "type": "biochemical, human", "conditions": "no GAL4-p53, naked DNA templates", "from_the_text": "To screen peptides for the ability to selectively block p53-dependent transcription, we required an assay that enabled p53-dependent activation but that could also support basal (i.e. activator-independent) transcription. The present inventors had previously established an in vitro transcription assay (using highly purified human factors (FIG. 1A). A key feature of this assay was that both activated and basal transcription could be reconstituted on naked DNA templates (i.e. DNA templates not assembled into chromatin). To adapt this assay for purposes of measuring basal vs. p53-activated transcription, we generated templates with Gal4 DNA binding sites upstream of the adenovirus major late promoter sequence (FIG. 5A, B). Upon titration of a Gal4 DNA Binding Domain (DBD)-p53 Activation Domain (AD; residues 1-70) fusion protein into this system, we observed pol II-dependent transcription that was dependent on p53AD and Mediator (FIG. 5C). Reactions containing Gal4-p53AD generally produced about two- to four-fold more transcripts compared to reactions with no activator (FIG. 5C). Because experiments without Gal4-p53AD produced a low level of “basal” transcription that could be quantitated, this system allowed assessment of both p53-activated and basal transcription. […]"}, "[3]": {"target": "human Mediator complex (human)"}}, "note": "Bridge positions count the residues as written; N and C are the ends. Square brackets hold non-standard residues; d marks the D form. Peptide text beside a SMILES is read from it. R8 = C=CCCCCCC[C@@](C)(N)C(=O)O; S5 = C=CCCC[C@](C)(N)C(=O)O", "data": [{"molecule": "CC(=O)N[C@@H](CCCNC(=N)N)C(=O)N[C@@H](CO)C(=O)N[C@@H](CCC(N)=O)C(=O)N[C@@H](CCC(=O)O)C(=O)N[C@@H](CCCNC(=N)N)C(=O)N[C@@H](Cc1ccccc1)C(=O)N[C@]1(C)CCCCCCC=CCCC[C@@](C)(C(=O)N[C@@H](CCCNC(=N)N)C(=O)N[C@@H](CCCNC(=N)N)C(N)=O)NC(=O)[C@H](CC(C)C)NC(=O)[C@H](CCCNC(=N)N)NC(=O)[C@H](CCCCN)NC(=O)[C@H](Cc2c[nH]c3ccccc23)NC(=O)[C@H](CC(C)C)NC(=O)[C@H](CC(=O)O)NC1=O", "note": "[BP1.4] (Ac-RSQERF[R8]DLWKRL[S5]RR-NH2; staple 7-14; C-terminus assumed)", "values": [{"measurement": "cellular uptake", "setting": "cells", "value": "not effectively taken up by cells"}]}, {"molecule": "COc1ccc(C2=N[C@@H](c3ccc(Cl)cc3)[C@@H](c3ccc(Cl)cc3)N2C(=O)N2CCNC(=O)C2)c(OC(C)C)c1", "note": "[Nutlin-3a, reference compound]", "values": [{"measurement": "expression of p53 target genes", "setting": "[1]; Nutlin-3a 10 μM, 3 h, HCT116", "value": "induced expression of p53 target genes"}, {"measurement": "GSEA p53 pathway NES, Nutlin response without peptide", "setting": "[1]; RNA-Seq experiment 1", "value": 2.76}, {"measurement": "GSEA p53 pathway NES, Nutlin response without peptide", "setting": "[1]; RNA-Seq experiment 2", "value": 1.59}, {"measurement": "pol II occupancy at the p21 locus", "setting": "[2]", "value": "strongly induced pol II at the p21 locus"}]}, {"molecule": "BP1.5: N-acetylated hydrocarbon-stapled penta-arg p53AD1 mimic, SEQ ID NO. 5 RRETFZDRWKRLXRN", "values": [{"measurement": "effect on basal transcription, initial screen", "setting": "basal transcription; 5 μM peptide", "value": "did not affect basal transcription"}, {"measurement": "effect on basal transcription, follow-up experiments", "setting": "basal transcription", "value": "negatively affected basal transcription to some degree"}]}, {"molecule": "GST-VP16AD (residues 411-490) (from UniProt P08515 1-218; P06492 411-490)", "values": [{"measurement": "fold change of Mediator-bound VP16 with bivalent peptide vs. without", "setting": "[3]", "value": 1.67, "unit": "fold"}]}]}
